Laboratory results taken from PubChem BioAssay AID270 (DTP/NCI, 2004).
“And” between values parts separate entries of the source, which are not always exact repeats. Identical values can stand only once. Inconclusive results are not listed.

System: BDF1 mice, s.c. Lewis lung carcinoma, T/C %
Experiment: NCI In Vivo Anticancer Drug Screen. Data for tumor model Lewis Lung Carcinoma (subcutaneous) in B6D2F1 (BDF1) mice
Outline: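 Transplanted tumors grown in mice; compound vs vehicle dosing; endpoint survival or tumor size; ratio T/C.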

COc1ccc2cc3[n+](cc2c1OC)CCc1cc2c(cc1-3)OCO2
T/C (endpoint: mean tumor weight, dose: 12.0 mg/kg/injection, schedule: Q01DX011 (ip), vehicle: saline, higher = larger tumour): 96 % of control
T/C (endpoint: median survival time, dose: 0.12 mg/kg/injection, schedule: Q01DX009 (ip), vehicle: Klucel (hydroxypropylcellulose) (HPC), higher = longer survival): 102 % of control
T/C (endpoint: median survival time, dose: 0.25 mg/kg/injection, schedule: Q01DX009 (ip), vehicle: Klucel (hydroxypropylcellulose) (HPC), higher = longer survival): 107 % of control
T/C (endpoint: median survival time, dose: 0.5 mg/kg/injection, schedule: Q01DX009 (ip), vehicle: Klucel (hydroxypropylcellulose) (HPC), higher = longer survival): 112 % of control
T/C (endpoint: median survival time, dose: 1.0 mg/kg/injection, schedule: Q01DX009 (ip), vehicle: Klucel (hydroxypropylcellulose) (HPC), higher = longer survival): 110 % of control
T/C (endpoint: median survival time, dose: 2.0 mg/kg/injection, schedule: Q01DX009 (ip), vehicle: Klucel (hydroxypropylcellulose) (HPC), higher = longer survival): 95 % of control
T/C (endpoint: median survival time, dose: 4.0 mg/kg/injection, schedule: Q01DX009 (ip), vehicle: Klucel (hydroxypropylcellulose) (HPC), higher = longer survival): 100 % of control
T/C (endpoint: median survival time, dose: 8.0 mg/kg/injection, schedule: Q01DX009 (ip), vehicle: Klucel (hydroxypropylcellulose) (HPC), higher = longer survival): 92 % of control

CCC1/C=C/C=C/CC(C)C(O)C(C)(O)C(=O)C(C)C(O)C(C)C(=O)C(C)C(O)C(C)/C=C/C(=O)OC2C(C)C(CC1)OC1(OC(CC(C)O)C(C)CC1=O)C2C (centres undefined) (tested in a mixture with another compound)
T/C (endpoint: mean tumor weight, dose: 2.0 mg/kg/injection, schedule: Q01DX011 (ip), vehicle: saline, higher = larger tumour): 106 % of control
T/C (endpoint: mean tumor weight, dose: 4.0 mg/kg/injection, schedule: Q01DX011 (ip), vehicle: saline, higher = larger tumour): 94 % of control
T/C (endpoint: mean tumor weight, dose: 8.0 mg/kg/injection, schedule: Q01DX011 (ip), vehicle: saline, higher = larger tumour): 82 % of control

CC(C)=CCC/C(C)=C/CO
T/C (endpoint: mean tumor weight, dose: 3.9 mg/kg/injection, schedule: Q01DX011 (ip), vehicle: saline, higher = larger tumour): 74 % of control
T/C (endpoint: mean tumor weight, dose: 7.8 mg/kg/injection, schedule: Q01DX011 (ip), vehicle: saline, higher = larger tumour): 85 % of control
T/C (endpoint: mean tumor weight, dose: 15.6 mg/kg/injection, schedule: Q01DX011 (ip), vehicle: saline, higher = larger tumour): 71 % of control
T/C (endpoint: mean tumor weight, dose: 31.3 mg/kg/injection, schedule: Q01DX011 (ip), vehicle: saline, higher = larger tumour): 68 % of control and 73 % of control
T/C (endpoint: mean tumor weight, dose: 62.5 mg/kg/injection, schedule: Q01DX011 (ip), vehicle: saline, higher = larger tumour): 105 % of control

C[C@@H]1CCC[C@@H](NC(=O)N(CCCl)N=O)C1
T/C (endpoint: median survival time, dose: 4.68 mg/kg/injection, schedule: Q01DX009 (ip), vehicle: Klucel (hydroxypropylcellulose) (HPC), higher = longer survival): 97 % of control
T/C (endpoint: median survival time, dose: 9.37 mg/kg/injection, schedule: Q01DX009 (ip), vehicle: Klucel (hydroxypropylcellulose) (HPC), higher = longer survival): 98 % of control
T/C (endpoint: median survival time, dose: 18.75 mg/kg/injection, schedule: Q01DX009 (ip), vehicle: Klucel (hydroxypropylcellulose) (HPC), higher = longer survival): 108 % of control

CCC(CCC(C)C1CCC2C3CC=C4CC(OC(=O)CCC(=O)O)CCC4(C)C3CCC12C)C(C)C (centres undefined)
T/C (endpoint: mean tumor weight, dose: 200.0 mg/kg/injection, schedule: Q01DX011 (ip), vehicle: water, higher = larger tumour): 63 % of control
T/C (endpoint: mean tumor weight, dose: 400.0 mg/kg/injection, schedule: Q01DX011 (ip), vehicle: water, higher = larger tumour): 38 % of control
T/C (endpoint: mean tumor weight, dose: 450.0 mg/kg/injection, schedule: Q01DX011 (ip), vehicle: water, higher = larger tumour): 59 % of control
T/C (endpoint: mean tumor weight, dose: 600.0 mg/kg/injection, schedule: Q01DX011 (ip), vehicle: water, higher = larger tumour): 31 % of control

O=C(O)c1cc(=O)cc(C(=O)O)o1
T/C (endpoint: mean tumor weight, dose: 25.0 mg/kg/injection, schedule: Q01DX011 (ip), vehicle: saline, higher = larger tumour): 66 % of control
T/C (endpoint: mean tumor weight, dose: 50.0 mg/kg/injection, schedule: Q01DX011 (ip), vehicle: saline, higher = larger tumour): 76 % of control
T/C (endpoint: mean tumor weight, dose: 100.0 mg/kg/injection, schedule: Q01DX011 (ip), vehicle: saline, higher = larger tumour): 77 % of control

CCCCCOC(CN)C(Cl)(Cl)Cl (centres undefined)
T/C (endpoint: median survival time, dose: 12.5 mg/kg/injection, schedule: Q01DX009 (ip), vehicle: saline, higher = longer survival): 100 % of control
T/C (endpoint: median survival time, dose: 25.0 mg/kg/injection, schedule: Q01DX009 (ip), vehicle: saline, higher = longer survival): 92 % of control
T/C (endpoint: median survival time, dose: 100.0 mg/kg/injection, schedule: Q01DX009 (ip), vehicle: saline, higher = longer survival): 95 % of control

CN(C)CCCNc1c2ccccc2nc2cccc([N+](=O)[O-])c12
T/C (endpoint: median survival time, dose: 2.0 micrograms/kg/injection, schedule: Q01DX009 (ip), vehicle: saline, higher = longer survival): 98 % of control and 118 % of control
T/C (endpoint: median survival time, dose: 8.0 micrograms/kg/injection, schedule: Q01DX009 (ip), vehicle: saline, higher = longer survival): 89 % of control
T/C (endpoint: median survival time, dose: 16.0 micrograms/kg/injection, schedule: Q01DX009 (ip), vehicle: saline, higher = longer survival): 109 % of control
T/C (endpoint: median survival time, dose: 32.0 micrograms/kg/injection, schedule: Q01DX009 (ip), vehicle: saline, higher = longer survival): 95 % of control
T/C (endpoint: median survival time, dose: 125.0 micrograms/kg/injection, schedule: Q01DX009 (ip), vehicle: saline, higher = longer survival): 93 % of control

O=NN(CCCl)C(=O)Nc1ccc(Cl)c(Cl)c1
T/C (endpoint: median survival time, dose: 8.0 mg/kg/injection, schedule: Q01DX009 (ip), vehicle: saline with Tween-80, higher = longer survival): 116 % of control
T/C (endpoint: median survival time, dose: 16.0 mg/kg/injection, schedule: Q01DX009 (ip), vehicle: saline with Tween-80, higher = longer survival): 106 % of control

O=NN(CCCl)C(=O)NC1CCCC1
T/C (endpoint: median tumor weight (est.), dose: 33.0 mg/kg/injection, schedule: Q01DX001 (ip), vehicle: saline, higher = larger tumour): 62 % of control
T/C (endpoint: median tumor weight (est.), dose: 67.0 mg/kg/injection, schedule: Q01DX001 (ip), vehicle: saline, higher = larger tumour): 76 % of control
T/C (endpoint: median tumor weight (est.), dose: 100.0 mg/kg/injection, schedule: Q01DX001 (ip), vehicle: saline, higher = larger tumour): 56 % of control
